According to ChEMBL document CHEMBL1201862, “PubChem BioAssay data set” (2004):
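The compound was tested at five concentrations on cells cultured in 96-well plates, with a 48-hour exposure period. Abbreviation: GI50, concentration required for 50% inhibition of growth.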 The source made the active and inactive calls. Rule as the data show it: active = GI50 up to about 1.1 µM and inactive = higher.

Tests used:
Assay in all cases: NCI tumour cell line growth inhibition, 48 h
SK-MEL-2 = system: SK-MEL-2
SK-MEL-5 = system: SK-MEL-5
Hs-578T = system: Hs-578T
RPMI-8226 = system: RPMI-8226
RXF 393 = system: RXF 393
HT-29 = system: HT-29
IGROV-1 = system: IGROV-1
HOP-62 = system: HOP-62
COLO 205 = system: COLO 205
PC-3 = system: PC-3
MDA-MB-231 = system: MDA-MB-231
KM12 = system: KM12
NCI-H522 = system: NCI-H522
HOP-92 = system: HOP-92
A498 = system: A498
SF-295 = system: SF-295
EKVX = system: EKVX
NCI-H23 = system: NCI-H23
MOLT-4 = system: MOLT-4

Measured: GI50

COc1cc2nc(-c3cccs3)oc(=O)c2cc1OC
inactive: SK-MEL-2 > 100 µM | SK-MEL-5 > 100 µM | Hs-578T 72.1 µM | RPMI-8226 > 100 µM | RXF 393 > 100 µM | HT-29 > 100 µM | IGROV-1 > 100 µM | HOP-62 17.6 µM | COLO 205 > 100 µM | PC-3 > 100 µM | MDA-MB-231 74.8 µM | KM12 > 100 µM | NCI-H522 > 100 µM | HOP-92 > 100 µM | A498 > 100 µM | SF-295 > 100 µM | EKVX > 100 µM | NCI-H23 97.9 µM | MOLT-4 > 100 µM

Cc1ccc(C(=O)C2C=C(c3ccc(C)cc3)SC3C=CCC32)cc1 (stereo not given)
inactive: SK-MEL-2 16.1 µM | SK-MEL-5 15.5 µM | Hs-578T 26.1 µM | RPMI-8226 16.3 µM | RXF 393 21 µM | HT-29 21.4 µM | IGROV-1 19.6 µM | HOP-62 20.3 µM | COLO 205 22.1 µM | PC-3 18.1 µM | MDA-MB-231 25.1 µM | KM12 15 µM | NCI-H522 15.3 µM | HOP-92 17.8 µM | A498 24.7 µM | SF-295 19.1 µM | EKVX 34.8 µM | NCI-H23 24.2 µM | MOLT-4 12.1 µM

NC(=O)NC(=O)C1CCCCC1C(=O)O (stereo not given)
inactive: SK-MEL-2 > 100 µM | SK-MEL-5 > 100 µM | Hs-578T > 100 µM | RPMI-8226 > 100 µM | RXF 393 > 100 µM | HT-29 > 100 µM | IGROV-1 > 100 µM | HOP-62 > 100 µM | COLO 205 > 100 µM | PC-3 > 100 µM | MDA-MB-231 > 100 µM | KM12 > 100 µM | NCI-H522 > 100 µM | HOP-92 > 100 µM | A498 > 100 µM | SF-295 > 100 µM | EKVX > 100 µM | NCI-H23 > 100 µM

C/C(=N\n1c(Cc2ccccc2)n[nH]c1=O)c1ccccc1
inactive: SK-MEL-2 > 100 µM | SK-MEL-5 > 100 µM | Hs-578T > 100 µM | RPMI-8226 > 100 µM | RXF 393 > 100 µM | HT-29 > 100 µM | IGROV-1 > 100 µM | COLO 205 > 100 µM | PC-3 > 100 µM | MDA-MB-231 > 100 µM | KM12 > 100 µM | NCI-H522 > 100 µM | HOP-92 26.8 µM | A498 > 100 µM | EKVX 94.4 µM | NCI-H23 > 100 µM | MOLT-4 > 100 µM

COc1ccc2c3c1O[C@H]1[C@@H](O)CC[C@@]4(O)[C@@H](C2)N(C)CC[C@]314
inactive: SK-MEL-2 > 100 µM | SK-MEL-5 > 100 µM | Hs-578T > 100 µM | RPMI-8226 > 100 µM | HT-29 > 100 µM | IGROV-1 > 100 µM | HOP-62 > 100 µM | COLO 205 > 100 µM | PC-3 > 100 µM | MDA-MB-231 > 100 µM | KM12 > 100 µM | NCI-H522 > 100 µM | HOP-92 > 100 µM | A498 > 100 µM | SF-295 > 100 µM | EKVX > 100 µM | NCI-H23 > 100 µM | MOLT-4 > 100 µM

CCOC(=O)C(C/C=C/CO)N(C)C(=O)OC(C)(C)C (stereo not given)
inactive: SK-MEL-2 > 100 µM | SK-MEL-5 > 100 µM | Hs-578T 53.5 µM | RPMI-8226 > 100 µM | RXF 393 > 100 µM | HT-29 > 100 µM | IGROV-1 > 100 µM | HOP-62 > 100 µM | COLO 205 > 100 µM | PC-3 > 100 µM | MDA-MB-231 > 100 µM | KM12 > 100 µM | NCI-H522 10.1 µM | HOP-92 > 100 µM | A498 > 100 µM | SF-295 > 100 µM | EKVX > 100 µM | NCI-H23 > 100 µM | MOLT-4 > 100 µM

COc1ccc(N(c2ccc(C#N)cc2)c2ccc(C#N)cc2)cc1
inactive: SK-MEL-2 > 100 µM | SK-MEL-5 > 100 µM | Hs-578T > 100 µM | HT-29 9.89 µM | IGROV-1 23.7 µM | HOP-62 > 100 µM | COLO 205 31.9 µM | PC-3 > 100 µM | MDA-MB-231 > 100 µM | KM12 8.43 µM | NCI-H522 3.78 µM | HOP-92 > 100 µM | A498 65.3 µM | SF-295 > 100 µM | EKVX > 100 µM | NCI-H23 29.4 µM | MOLT-4 5.2 µM

CC(C)CC1[C@@H](OCc2ccccc2)COS(=O)(=O)N1Cc1ccccc1 (stereo not given in full)
inactive: SK-MEL-2 > 100 µM | SK-MEL-5 83.2 µM | Hs-578T 14.7 µM | RPMI-8226 31.9 µM | HT-29 38.9 µM | IGROV-1 81.7 µM | HOP-62 > 100 µM | COLO 205 > 100 µM | PC-3 65.5 µM | MDA-MB-231 > 100 µM | KM12 20.7 µM | NCI-H522 24.4 µM | HOP-92 > 100 µM | A498 > 100 µM | SF-295 27.6 µM | EKVX > 100 µM | NCI-H23 20.7 µM | MOLT-4 73.6 µM
